Measurements taken from ChEMBL document CHEMBL5212743, “Selectivity Literature for EUbOPEN Chemogenomics Library wave 3” (2023).
One block for each compound: values may come before it.

Assays:
[1] = molecular target: Rho-associated protein kinase 2 (Homo sapiens) (UniProt O75116); experiment: Selectivity interaction (Kinase panel (University of Dundee)) EUB0000169b ROCK2; details: at 10 µM
[2] = molecular target: T1, Alpha-1A adrenergic receptor (Homo sapiens) (UniProt P35348); experiment: Selectivity interaction (SafetyScreen44™ (Eurofins, panel of GPCRS, ion channels, transporters) ) EUB0000169b ADRA1A; details: at 10 µM
T1 sequence (whole entry): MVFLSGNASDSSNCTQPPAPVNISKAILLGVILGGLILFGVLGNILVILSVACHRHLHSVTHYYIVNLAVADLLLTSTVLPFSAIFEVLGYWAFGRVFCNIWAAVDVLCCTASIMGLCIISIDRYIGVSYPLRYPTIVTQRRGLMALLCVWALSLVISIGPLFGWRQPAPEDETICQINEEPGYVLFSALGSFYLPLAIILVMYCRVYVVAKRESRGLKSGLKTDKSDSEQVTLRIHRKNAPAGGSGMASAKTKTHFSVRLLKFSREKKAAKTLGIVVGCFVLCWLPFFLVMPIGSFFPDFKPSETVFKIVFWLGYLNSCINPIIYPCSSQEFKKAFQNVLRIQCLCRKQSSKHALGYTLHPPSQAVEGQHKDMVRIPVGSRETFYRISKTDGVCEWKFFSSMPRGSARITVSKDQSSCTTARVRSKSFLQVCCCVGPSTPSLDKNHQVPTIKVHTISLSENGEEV

[3] = molecular target: Tyrosine-protein kinase JAK1 (Homo sapiens, UniProt P23458); experiment: Selectivity interaction (KinomeScan (DiscoverX)) EUB0000178b JAK1@kinase 2; details: at 1 µM
Chain of Tyrosine-protein kinase JAK1 (P23458 whole entry): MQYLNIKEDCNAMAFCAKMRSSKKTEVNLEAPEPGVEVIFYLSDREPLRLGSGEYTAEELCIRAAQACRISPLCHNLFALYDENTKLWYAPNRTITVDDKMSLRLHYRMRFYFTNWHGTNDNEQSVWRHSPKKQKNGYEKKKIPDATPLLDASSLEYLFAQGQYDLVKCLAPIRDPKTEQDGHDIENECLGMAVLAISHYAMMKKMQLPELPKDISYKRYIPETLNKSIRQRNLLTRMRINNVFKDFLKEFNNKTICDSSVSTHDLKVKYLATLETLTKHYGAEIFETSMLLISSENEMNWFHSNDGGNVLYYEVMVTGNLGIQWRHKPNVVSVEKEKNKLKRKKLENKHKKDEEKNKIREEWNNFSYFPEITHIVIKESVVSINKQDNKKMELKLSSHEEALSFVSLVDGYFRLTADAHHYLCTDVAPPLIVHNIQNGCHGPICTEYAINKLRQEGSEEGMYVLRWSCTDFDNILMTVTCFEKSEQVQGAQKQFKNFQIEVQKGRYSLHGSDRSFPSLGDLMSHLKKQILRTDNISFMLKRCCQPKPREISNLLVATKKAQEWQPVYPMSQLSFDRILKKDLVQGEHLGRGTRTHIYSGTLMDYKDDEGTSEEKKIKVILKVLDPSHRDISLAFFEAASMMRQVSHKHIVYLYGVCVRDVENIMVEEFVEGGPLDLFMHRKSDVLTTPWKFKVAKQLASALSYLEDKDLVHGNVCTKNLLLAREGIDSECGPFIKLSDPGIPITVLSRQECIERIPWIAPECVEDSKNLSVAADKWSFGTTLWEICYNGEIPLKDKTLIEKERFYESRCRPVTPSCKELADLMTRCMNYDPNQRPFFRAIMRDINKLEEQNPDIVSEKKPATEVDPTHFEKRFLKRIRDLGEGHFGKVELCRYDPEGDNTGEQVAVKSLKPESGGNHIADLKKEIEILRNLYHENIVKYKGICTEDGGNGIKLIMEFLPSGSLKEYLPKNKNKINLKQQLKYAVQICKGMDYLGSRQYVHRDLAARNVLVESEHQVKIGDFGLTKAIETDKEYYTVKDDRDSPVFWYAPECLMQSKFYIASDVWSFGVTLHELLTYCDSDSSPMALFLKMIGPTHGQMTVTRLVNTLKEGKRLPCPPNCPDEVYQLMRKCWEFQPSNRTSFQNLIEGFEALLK

[4] = molecular target: Proto-oncogene tyrosine-protein kinase Src (Homo sapiens, UniProt P12931); details: at 1 µM
Chain of Proto-oncogene tyrosine-protein kinase Src (P12931 whole entry, looked up): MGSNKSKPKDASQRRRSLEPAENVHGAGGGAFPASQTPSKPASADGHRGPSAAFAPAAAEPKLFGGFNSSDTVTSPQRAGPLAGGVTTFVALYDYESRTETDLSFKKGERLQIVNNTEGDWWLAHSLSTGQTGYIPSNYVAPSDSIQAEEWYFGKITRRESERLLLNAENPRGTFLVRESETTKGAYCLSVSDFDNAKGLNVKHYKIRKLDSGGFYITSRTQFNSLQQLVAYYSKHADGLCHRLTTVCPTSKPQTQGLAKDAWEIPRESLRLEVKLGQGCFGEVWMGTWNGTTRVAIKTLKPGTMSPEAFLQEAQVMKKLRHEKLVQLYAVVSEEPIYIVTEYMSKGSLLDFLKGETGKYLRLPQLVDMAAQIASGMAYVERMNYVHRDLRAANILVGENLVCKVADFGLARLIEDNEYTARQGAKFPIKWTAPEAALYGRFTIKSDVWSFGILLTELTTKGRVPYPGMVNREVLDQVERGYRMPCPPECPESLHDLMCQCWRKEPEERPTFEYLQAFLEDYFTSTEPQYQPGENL

[5] = molecular target: Mitogen-activated protein kinase kinase kinase kinase 5 (Homo sapiens) (UniProt Q9Y4K4); details: at 1 µM
Chain of Mitogen-activated protein kinase kinase kinase kinase 5 (Homo sapiens) (Q9Y4K4 whole entry, looked up): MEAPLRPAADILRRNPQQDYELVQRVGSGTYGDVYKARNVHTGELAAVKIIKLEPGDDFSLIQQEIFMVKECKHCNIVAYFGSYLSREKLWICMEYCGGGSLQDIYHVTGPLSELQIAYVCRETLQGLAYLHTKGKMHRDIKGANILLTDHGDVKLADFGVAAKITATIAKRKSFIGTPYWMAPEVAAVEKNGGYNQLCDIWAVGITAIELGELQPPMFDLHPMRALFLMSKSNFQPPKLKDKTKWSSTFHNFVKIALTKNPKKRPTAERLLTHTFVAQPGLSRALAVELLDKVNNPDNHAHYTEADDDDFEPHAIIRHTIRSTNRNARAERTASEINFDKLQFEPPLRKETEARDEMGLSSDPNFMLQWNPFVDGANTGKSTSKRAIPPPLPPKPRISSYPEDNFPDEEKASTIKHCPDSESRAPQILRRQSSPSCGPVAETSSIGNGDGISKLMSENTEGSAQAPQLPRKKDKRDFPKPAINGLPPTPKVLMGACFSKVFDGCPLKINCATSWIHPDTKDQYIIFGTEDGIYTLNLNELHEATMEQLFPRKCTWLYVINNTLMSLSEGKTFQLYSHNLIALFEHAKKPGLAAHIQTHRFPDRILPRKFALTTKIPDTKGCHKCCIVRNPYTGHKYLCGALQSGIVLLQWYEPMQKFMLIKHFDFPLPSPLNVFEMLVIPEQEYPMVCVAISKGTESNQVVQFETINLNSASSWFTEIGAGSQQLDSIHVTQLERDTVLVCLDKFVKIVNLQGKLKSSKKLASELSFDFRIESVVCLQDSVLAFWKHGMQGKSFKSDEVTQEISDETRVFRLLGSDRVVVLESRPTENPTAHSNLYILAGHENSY

[6] = molecular target: T2, Aurora kinase C (Homo sapiens) (UniProt Q9UQB9); details: at 1 µM
T2 sequence (whole entry): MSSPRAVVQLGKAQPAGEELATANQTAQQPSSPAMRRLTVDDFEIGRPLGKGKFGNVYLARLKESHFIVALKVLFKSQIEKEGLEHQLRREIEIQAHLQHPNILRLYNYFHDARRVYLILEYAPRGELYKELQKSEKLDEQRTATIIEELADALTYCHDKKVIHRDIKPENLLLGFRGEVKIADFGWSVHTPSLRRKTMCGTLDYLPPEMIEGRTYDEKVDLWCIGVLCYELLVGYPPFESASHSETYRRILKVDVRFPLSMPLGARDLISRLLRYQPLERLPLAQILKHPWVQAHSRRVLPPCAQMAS

Aurora kinase B = Aurora kinase B (Homo sapiens, UniProt Q96GD4); details: at 1 µM
Chain of Aurora kinase B (Q96GD4 whole entry): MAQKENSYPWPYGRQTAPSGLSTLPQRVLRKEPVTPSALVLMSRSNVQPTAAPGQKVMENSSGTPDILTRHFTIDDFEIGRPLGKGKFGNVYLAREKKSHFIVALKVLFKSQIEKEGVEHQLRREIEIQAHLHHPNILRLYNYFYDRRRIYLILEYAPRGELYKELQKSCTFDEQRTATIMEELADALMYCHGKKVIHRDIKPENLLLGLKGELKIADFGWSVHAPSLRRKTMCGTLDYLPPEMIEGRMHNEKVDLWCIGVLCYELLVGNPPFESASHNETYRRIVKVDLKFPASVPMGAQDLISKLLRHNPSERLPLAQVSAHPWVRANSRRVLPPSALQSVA

[7] = molecular target: Dual specificity protein kinase CLK2 (Homo sapiens, UniProt P49760); experiment: Selectivity interaction (KinomeScan (DiscoverX)) EUB0000138c CLK2; details: at 100 nM
Chain of Dual specificity protein kinase CLK2 (P49760 whole entry, looked up): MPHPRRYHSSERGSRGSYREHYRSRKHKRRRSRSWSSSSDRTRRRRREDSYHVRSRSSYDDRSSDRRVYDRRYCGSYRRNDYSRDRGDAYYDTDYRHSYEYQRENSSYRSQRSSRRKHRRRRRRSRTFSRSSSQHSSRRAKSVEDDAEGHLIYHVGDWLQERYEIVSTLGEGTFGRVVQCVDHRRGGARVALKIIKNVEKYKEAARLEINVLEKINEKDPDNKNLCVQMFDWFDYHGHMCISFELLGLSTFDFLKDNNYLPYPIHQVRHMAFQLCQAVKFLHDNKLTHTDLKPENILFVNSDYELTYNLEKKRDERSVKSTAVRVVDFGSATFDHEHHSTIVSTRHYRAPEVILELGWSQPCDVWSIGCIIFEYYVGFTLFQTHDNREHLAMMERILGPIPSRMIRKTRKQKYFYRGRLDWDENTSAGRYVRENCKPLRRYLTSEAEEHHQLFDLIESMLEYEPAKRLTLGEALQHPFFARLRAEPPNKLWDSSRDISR

[8] = test system: T3, Receptor-type tyrosine-protein kinase FLT3 (Homo sapiens), P36888 [D835Y]; experiment: Selectivity interaction (KinomeScan (DiscoverX)) EUB0000138c FLT3; details: at 100 nM
T3 sequence (whole entry): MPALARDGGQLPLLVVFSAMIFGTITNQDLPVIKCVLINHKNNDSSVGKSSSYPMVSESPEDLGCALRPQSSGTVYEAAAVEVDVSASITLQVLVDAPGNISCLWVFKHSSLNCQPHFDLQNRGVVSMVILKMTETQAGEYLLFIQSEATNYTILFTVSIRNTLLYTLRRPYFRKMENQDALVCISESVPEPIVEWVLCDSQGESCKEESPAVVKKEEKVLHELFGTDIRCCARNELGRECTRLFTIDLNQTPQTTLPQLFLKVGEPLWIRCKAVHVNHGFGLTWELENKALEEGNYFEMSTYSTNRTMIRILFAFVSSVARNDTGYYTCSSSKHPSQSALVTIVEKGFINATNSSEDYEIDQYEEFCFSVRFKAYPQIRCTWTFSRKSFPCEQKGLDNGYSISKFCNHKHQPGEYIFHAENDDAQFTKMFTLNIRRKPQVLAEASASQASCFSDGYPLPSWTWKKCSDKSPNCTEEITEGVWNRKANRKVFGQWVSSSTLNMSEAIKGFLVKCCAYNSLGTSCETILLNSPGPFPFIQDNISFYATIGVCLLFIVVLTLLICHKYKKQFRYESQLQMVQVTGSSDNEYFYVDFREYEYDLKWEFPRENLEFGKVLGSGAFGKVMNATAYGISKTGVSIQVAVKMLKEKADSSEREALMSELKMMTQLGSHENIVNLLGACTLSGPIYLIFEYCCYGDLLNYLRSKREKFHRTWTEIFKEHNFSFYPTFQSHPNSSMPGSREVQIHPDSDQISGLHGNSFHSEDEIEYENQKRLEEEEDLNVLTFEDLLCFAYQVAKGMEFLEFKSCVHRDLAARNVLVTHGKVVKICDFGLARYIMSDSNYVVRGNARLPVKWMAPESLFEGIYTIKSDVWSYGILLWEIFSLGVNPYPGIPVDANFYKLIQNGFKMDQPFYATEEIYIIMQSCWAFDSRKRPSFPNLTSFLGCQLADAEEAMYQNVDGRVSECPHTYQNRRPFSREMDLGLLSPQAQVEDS

Chain of Rho-associated protein kinase 2 (Homo sapiens) (O75116 whole entry, looked up): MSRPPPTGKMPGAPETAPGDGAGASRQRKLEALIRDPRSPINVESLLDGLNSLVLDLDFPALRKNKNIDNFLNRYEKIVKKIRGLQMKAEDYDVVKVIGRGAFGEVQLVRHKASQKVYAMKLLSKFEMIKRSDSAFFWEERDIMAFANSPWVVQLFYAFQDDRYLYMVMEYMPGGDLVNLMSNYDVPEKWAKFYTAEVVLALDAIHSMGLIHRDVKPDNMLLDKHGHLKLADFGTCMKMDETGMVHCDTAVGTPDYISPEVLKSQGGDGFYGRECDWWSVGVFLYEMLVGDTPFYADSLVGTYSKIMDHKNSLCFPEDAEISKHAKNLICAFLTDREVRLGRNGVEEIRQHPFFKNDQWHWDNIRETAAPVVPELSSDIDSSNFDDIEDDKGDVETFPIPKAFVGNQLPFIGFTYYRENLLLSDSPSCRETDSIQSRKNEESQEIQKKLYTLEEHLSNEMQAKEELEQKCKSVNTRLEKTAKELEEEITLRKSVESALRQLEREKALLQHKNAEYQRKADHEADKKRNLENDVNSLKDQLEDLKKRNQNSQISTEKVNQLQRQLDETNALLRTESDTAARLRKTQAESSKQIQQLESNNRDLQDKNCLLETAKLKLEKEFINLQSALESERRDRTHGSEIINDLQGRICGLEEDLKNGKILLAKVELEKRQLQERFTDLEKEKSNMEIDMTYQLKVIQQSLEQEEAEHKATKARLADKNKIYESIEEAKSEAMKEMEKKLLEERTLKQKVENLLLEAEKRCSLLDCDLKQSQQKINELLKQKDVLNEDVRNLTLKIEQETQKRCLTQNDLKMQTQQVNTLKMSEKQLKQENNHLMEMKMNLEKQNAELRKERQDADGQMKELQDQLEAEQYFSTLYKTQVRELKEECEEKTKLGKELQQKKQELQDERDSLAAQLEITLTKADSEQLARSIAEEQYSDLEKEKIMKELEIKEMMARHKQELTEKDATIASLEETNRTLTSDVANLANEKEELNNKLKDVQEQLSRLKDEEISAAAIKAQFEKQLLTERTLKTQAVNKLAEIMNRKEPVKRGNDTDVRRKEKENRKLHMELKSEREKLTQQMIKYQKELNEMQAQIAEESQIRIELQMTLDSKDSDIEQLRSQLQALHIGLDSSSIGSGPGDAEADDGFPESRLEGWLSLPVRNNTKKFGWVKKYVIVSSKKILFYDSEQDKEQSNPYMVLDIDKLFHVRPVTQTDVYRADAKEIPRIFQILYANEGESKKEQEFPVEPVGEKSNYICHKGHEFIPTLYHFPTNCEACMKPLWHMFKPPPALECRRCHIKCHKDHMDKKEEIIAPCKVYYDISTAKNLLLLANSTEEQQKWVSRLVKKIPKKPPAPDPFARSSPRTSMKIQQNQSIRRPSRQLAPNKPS

% of control [1]: 98%
Structure (SMILES): CC[C@@H]1C(=O)N(C)c2cnc(Nc3ccc(C(=O)NC4CCN(C)CC4)cc3OC)nc2N1C1CCCC1
% of control [2]: 13%

% of control [3]: 4.3%
Structure (SMILES): CN1C(=O)c2sccc2N(C)c2nc(Nc3ccc(S(N)(=O)=O)cc3)ncc21

Structure (SMILES): CCOc1cn(-c2ccc(F)cc2C)nc1C(=O)Nc1ccc(Oc2ccnc3cc(OC)c(OC)cc23)c(F)c1
% of control [4]: < 10% | % of control [5]: < 10% | % of control [6]: < 10% | % of control (Aurora kinase B): < 10%

% of control [7]: 0% | % of control [8]: 5.9%
Structure (SMILES): CNC(=O)c1ccc(Nc2ncc(C(F)(F)F)c(NCc3nccnc3N(C)S(C)(=O)=O)n2)cc1 [DEFACTINIB]
